# In patent US20230270714A1, “SALVINORIN COMPOSITIONS” (priority 2021, published 2023):
# Several values for one entry are separate records, joined by “and”; a condition that tells them apart may be missing. Equal values may be shown once.
# Legend:
# [1] = Solubility of Salvinorin A API and Salvinorin A loaded buccal films in 10 mM PBS pH 7; type: physicochemical
# Procedure: After 3 hours samples were filtered through 0.45/0.22 micron filter and tested for content by HPLC analysis.
# [2] = Pharmacokinetics of subcutaneous Salvinorin A in rats, first experiment (in 1-methyl-2-pyrrolidine, polyethylene glycol 400 1:9 v/v); type: in vivo, male Sprague-Dawley rats
# Procedure: A series of experiments were conducted in order to evaluate the pharmacokinetics of injectable Salvinorin A compositions in rats. In the first experiment Salvinorin A was formulated at two different dose concentrations (5 mg/mL and 20 mg/mL Salvinorin A in 1-methyl-2-pyrrolidine, polyethylene glycol 400 at a 1:9 v/v ratio) and administered via injection (subcutaneous) to two groups of male Sprague-Dawley rats.
# [3] = Solubilization of Salvinorin A mixed with solubilizers in water (supersaturated mixtures, HPLC)
# [4] = Pharmacokinetics of subcutaneous Salvinorin A in rats, Day 1 and Day 8 (in 1-methyl-2-pyrrolidine, polyethylene glycol 400 1:9 v/v); type: in vivo, Sprague-Dawley rats; settings: for time to peak plasma concentration (Tmax): summary of two separate studies
# Procedure: In another experiment Salvinorin A was formulated at three different dose concentrations (1 mg/mL, 5 mg/mL, and 10 mg/mL Salvinorin A in 1-methyl-2-pyrrolidine, polyethylene glycol 400 at a 1:9 v/v ratio) and administered via injection (subcutaneous) to three groups of Sprague-Dawley rats (each group including female and male rats). The formulation containing 10 mg/mL Salvinorin A was administered as two injections at separate dosage sites (total dose of 100 mg/kg). The same groups of rats were administered a second dose of the injectable composition 7 days after the first dosing.
# [5] = Salvinorin A solubility in polar aprotic solvents; type: physicochemical
# Procedure: In Table 9 below the solubility of Salvinorin A in polar aprotic solvents was evaluated by increasing the amount of Salvinorin A in the candidate solvents.
# [6] = administered orally, even at higher doses; cited from earlier work
# [7] = Solubility of Salvinorin A in solubilizer oils (HPLC)
# [8] = Group 1, 25 mg/kg subcutaneous, Mean
# [9] = Group 1, 25 mg/kg subcutaneous, individual rats 0, 1, 2, 25 mg/kg
# [10] = Group 2, 100 mg/kg subcutaneous, Mean
# [11] = Group 2, 100 mg/kg subcutaneous, individual rats 3, 4, 5, 100 mg/kg
# [12] = Day 1, Group 10, 5 mg/kg subcutaneous, Mean of M and F
# [13] = Day 1, Group 10, 5 mg/kg subcutaneous, Sex F
# [14] = Day 1, Group 10, 5 mg/kg subcutaneous, Sex M
# [15] = Day 1, Group 11, 25 mg/kg subcutaneous, Mean of M and F
# [16] = Day 1, Group 11, 25 mg/kg subcutaneous, Sex F
# [17] = Day 1, Group 11, 25 mg/kg subcutaneous, Sex M
# [18] = Day 1, Group 12, 100 mg/kg subcutaneous (two injections), Mean of M and F
# [19] = Day 1, Group 12, 100 mg/kg subcutaneous (two injections), Sex F
# [20] = Day 1, Group 12, 100 mg/kg subcutaneous (two injections), Sex M
# [21] = Day 8 (second dose), Group 10, 5 mg/kg subcutaneous, Mean of M and F
# [22] = Day 8 (second dose), Group 10, 5 mg/kg subcutaneous, Sex F
# [23] = Day 8 (second dose), Group 10, 5 mg/kg subcutaneous, Sex M
# [24] = Day 8 (second dose), Group 11, 25 mg/kg subcutaneous, Mean of M and F
# [25] = Day 8 (second dose), Group 11, 25 mg/kg subcutaneous, Sex F
# [26] = Day 8 (second dose), Group 11, 25 mg/kg subcutaneous, Sex M
# [27] = Day 8 (second dose), Group 12, 100 mg/kg subcutaneous (two injections), Mean of M and F
# [28] = Day 8 (second dose), Group 12, 100 mg/kg subcutaneous (two injections), Sex F
# [29] = Day 8 (second dose), Group 12, 100 mg/kg subcutaneous (two injections), Sex M
compound,measurement,setting,value
COC(=O)[C@@H]1C[C@H](OC(C)=O)C(=O)[C@H]2[C@@]1(C)CC[C@H]1C(=O)O[C@H](c3ccoc3)C[C@]21C [Salvinorin A],Solubility,"[1]; 4 mg equivalent of API powder or film in 10 mL 10 mM PBS, pH 7, 3 hours, filtered, HPLC",1.8 µg/mL
same,Solubility (in words),"[1]; 10 mM PBS, pH 7.0",very low solubility
same,AUC0-00,[2]; [8],457.0 ng·h/mL
same,AUClast,[2]; [8],427.3 ng·h/mL
same,Cmax,[2]; [8],215.3 ng/mL
same,Tmax,[2]; [8],0.50 h
same,T½,[2]; [8],1.5 h
same,Tmax,"[2]; Group 1, 25 mg/kg subcutaneous, individual rats 0, 1, 2",0.50 h
same,AUC0-00,[2]; [9],389 ng·h/mL and 422 ng·h/mL and 560 ng·h/mL
same,AUClast,[2]; [9],362 ng·h/mL and 405 ng·h/mL and 515 ng·h/mL
same,Cmax,[2]; [9],209 ng/mL and 213 ng/mL and 224 ng/mL
same,T½,[2]; [9],1.00 h and 1.58 h and 1.96 h
same,AUC0-00,[2]; [10],419.3 ng·h/mL
same,AUClast,[2]; [10],395.0 ng·h/mL
same,Cmax,[2]; [10],183.3 ng/mL
same,Tmax,[2]; [10],0.7 h
same,T½,[2]; [10],1.5 h
same,AUC0-00,[2]; [11],365 ng·h/mL and 498 ng·h/mL and 395 ng·h/mL
same,AUClast,[2]; [11],348 ng·h/mL and 461 ng·h/mL and 376 ng·h/mL
same,Cmax,[2]; [11],187 ng/mL and 208 ng/mL and 155 ng/mL
same,Tmax,[2]; [11],1.00 h and 0.50 h
same,T½,[2]; [11],0.87 h and 1.91 h and 1.73 h
same,Solubility (mg/ml) HPLC,"[3]; Benzalkonium chloride (BKC) 50 mg, Salvinorin A 21 mg, water 10 ml",0.008 mg/mL
same,Solubility (mg/ml) HPLC,"[3]; Poloxamer 407 (Lutrol micro 127 MP) 150 mg, Salvinorin A 21 mg, water 10 ml",0.008 mg/mL
same,Solubility (mg/ml) HPLC,"[3]; SPAN 60 103.00 mg, Salvinorin A 12.00 mg, water 5 ml",0.013 mg/mL
same,Solubility (mg/ml) HPLC,"[3]; Sodium Deoxycholate 100 mg, Salvinorin A 22 mg, water 10 ml",0.078 mg/mL
same,Solubility (mg/ml) HPLC,"[3]; Sodium dodecyl sulfate (SDS; SLS) 50 mg, Salvinorin A 21 mg, water 10 ml",0.013 mg/mL
same,Solubility (mg/ml) HPLC,"[3]; TPGS (soluble vitamin E) 100 mg, Salvinorin A 23 mg, water 10 ml",0.011 mg/mL
same,AUClast,[4]; [12],191 ng·h/mL
same,Cmax,[4]; [12],67.1 ng/mL
same,Tmax,[4]; [12],3 h
same,AUClast,[4]; [13],233 ng·h/mL
same,Cmax,[4]; [13],75.8 ng/mL
same,Tlast,[4]; [13],4 h
same,Tmax,[4]; [13],4 h
same,AUClast,[4]; [14],148 ng·h/mL
same,Cmax,[4]; [14],58.4 ng/mL
same,Tlast,[4]; [14],4 h
same,Tmax,[4]; [14],2 h
same,AUClast,[4]; [15],375 ng·h/mL
same,Cmax,[4]; [15],192 ng/mL
same,Tmax,[4]; [15],0.75 h
same,AUClast,[4]; [16],389 ng·h/mL
same,Cmax,[4]; [16],250 ng/mL
same,Tlast,[4]; [16],4 h
same,Tmax,[4]; [16],0.5 h
same,AUClast,[4]; [17],361 ng·h/mL
same,Cmax,[4]; [17],135 ng/mL
same,Tlast,[4]; [17],4 h
same,Tmax,[4]; [17],1 h
same,AUC0-00,[4]; [18],1580 ng·h/mL
same,AUClast,[4]; [18],1540 ng·h/mL
same,Cmax,[4]; [18],370 ng/mL
same,Tmax,[4]; [18],0.075 h
same,T½,[4]; [18],4.79 h
same,AUC0-00,[4]; [19],1920 ng·h/mL
same,AUClast,[4]; [19],1870 ng·h/mL
same,Cmax,[4]; [19],419 ng/mL
same,Tlast,[4]; [19],24 h
same,Tmax,[4]; [19],1 h
same,T½,[4]; [19],4.80 h
same,AUC0-00,[4]; [20],1240 ng·h/mL
same,AUClast,[4]; [20],1210 ng·h/mL
same,Cmax,[4]; [20],321 ng/mL
same,Tlast,[4]; [20],24 h
same,Tmax,[4]; [20],0.5 h
same,T½,[4]; [20],4.78 h
same,AUClast,[4]; [21],200 ng·h/mL
same,Cmax,[4]; [21],74.5 ng/mL
same,Tmax,[4]; [21],2 h
same,AUClast,[4]; [22],211 ng·h/mL
same,Cmax,[4]; [22],78.3 ng/mL
same,Tlast,[4]; [22],4 h
same,Tmax,[4]; [22],2 h
same,AUClast,[4]; [23],188 ng·h/mL
same,Cmax,[4]; [23],70.6 ng/mL
same,Tlast,[4]; [23],4 h
same,Tmax,[4]; [23],2 h
same,(h),[4]; [24],4.54 h
same,AUC0-00,[4]; [24],735 ng·h/mL
same,AUClast,[4]; [24],723 ng·h/mL
same,Cmax,[4]; [24],174 ng/mL
same,Tmax,[4]; [24],0.75 h
same,(h),[4]; [25],4.16 h
same,AUC0-00,[4]; [25],958 ng·h/mL
same,AUClast,[4]; [25],946 ng·h/mL
same,Cmax,[4]; [25],162 ng/mL
same,Tlast,[4]; [25],24 h
same,Tmax,[4]; [25],0.5 h
same,(h),[4]; [26],4.92 h
same,AUC0-00,[4]; [26],512 ng·h/mL
same,AUClast,[4]; [26],500 ng·h/mL
same,Cmax,[4]; [26],185 ng/mL
same,Tlast,[4]; [26],24 h
same,Tmax,[4]; [26],1 h
same,(h),[4]; [27],5.00 h
same,AUC0-00,[4]; [27],1420 ng·h/mL
same,AUClast,[4]; [27],1380 ng·h/mL
same,Cmax,[4]; [27],341 ng/mL
same,Tmax,[4]; [27],0.05 h
same,(h),[4]; [28],4.80 h
same,AUC0-00,[4]; [28],1520 ng·h/mL
same,AUClast,[4]; [28],1470 ng·h/mL
same,Cmax,[4]; [28],315 ng/mL
same,Tlast,[4]; [28],24 h
same,Tmax,[4]; [28],0.5 h
same,(h),[4]; [29],5.20 h
same,AUC0-00,[4]; [29],1320 ng·h/mL
same,AUClast,[4]; [29],1280 ng·h/mL
same,Cmax,[4]; [29],368 ng/mL
same,Tlast,[4]; [29],24 h
same,Tmax,[4]; [29],0.5 h
same,time to peak plasma concentration (Tmax),[4]; subcutaneous dosing in the rat at 5 mg/kg,2 to 4 h
same,time to peak plasma concentration (Tmax),[4]; subcutaneous dosing in the rat at 25 and 100 mg/kg,0.5 h
same,"Solubility (Y= soluble, N= not soluble completely)","[5]; DMA, 100 mg/ml",Y (Y= soluble)
same,"Solubility (Y= soluble, N= not soluble completely)","[5]; DMA, 200 mg/ml",N (N= not soluble completely)
same,"Solubility (Y= soluble, N= not soluble completely)","[5]; DMSO, 100 mg/ml",Y (Y= soluble)
same,"Solubility (Y= soluble, N= not soluble completely)","[5]; DMSO, 200 mg/ml",N (N= not soluble completely)
same,"Solubility (Y= soluble, N= not soluble completely)","[5]; NMP, 20 mg/ml",Y (Y= soluble)
same,"Solubility (Y= soluble, N= not soluble completely)","[5]; NMP, 100 mg/ml",Y (Y= soluble)
same,"Solubility (Y= soluble, N= not soluble completely)","[5]; NMP, 200 mg/ml",Y (Y= soluble)
same,psychoactive effects,[6],fails to exhibit any psychoactive effects
same,Solubility (mg/ml) HPLC,"[7]; Eucaliptol 5 g, Salvinorin A 12.00 mg",0.108 mg/mL
same,Solubility (mg/ml) HPLC,"[7]; L Menthone 5 g, Salvinorin A 10.00 mg",0.101 mg/mL
same,Solubility (mg/ml) HPLC,"[7]; Oleyl Alcohol 5 g, Salvinorin A 11.00 mg",0.065 mg/mL
same,Solubility (mg/ml) HPLC,"[7]; Peppermint oil 5 g, Salvinorin A 9.90 mg",0.384 mg/mL
same,Solubility (mg/ml) HPLC,"[7]; S Limonene 5 g, Salvinorin A 10.00 mg",0.052 mg/mL
same,Solubility (mg/ml) HPLC,"[7]; Soybean oil 5 g, Salvinorin A 11.00 mg",0.032 mg/mL
